Test results taken from patent US8198273B2, “Compounds and methods for kinase modulation, and indications therefor” (Plexxikon Inc., priority 2009, dated 2012).

Experiments:
CYP1A2 = biological target: T1, CYP1A2 (Homo sapiens, UniProt P05177); assay: CYP1A2 inhibition (fluorescent substrate); format: in vitro ADME; conditions: CYP1A2, CEC substrate; read-out: Cyp IC50 1A2
T1 sequence (P05177 1-516): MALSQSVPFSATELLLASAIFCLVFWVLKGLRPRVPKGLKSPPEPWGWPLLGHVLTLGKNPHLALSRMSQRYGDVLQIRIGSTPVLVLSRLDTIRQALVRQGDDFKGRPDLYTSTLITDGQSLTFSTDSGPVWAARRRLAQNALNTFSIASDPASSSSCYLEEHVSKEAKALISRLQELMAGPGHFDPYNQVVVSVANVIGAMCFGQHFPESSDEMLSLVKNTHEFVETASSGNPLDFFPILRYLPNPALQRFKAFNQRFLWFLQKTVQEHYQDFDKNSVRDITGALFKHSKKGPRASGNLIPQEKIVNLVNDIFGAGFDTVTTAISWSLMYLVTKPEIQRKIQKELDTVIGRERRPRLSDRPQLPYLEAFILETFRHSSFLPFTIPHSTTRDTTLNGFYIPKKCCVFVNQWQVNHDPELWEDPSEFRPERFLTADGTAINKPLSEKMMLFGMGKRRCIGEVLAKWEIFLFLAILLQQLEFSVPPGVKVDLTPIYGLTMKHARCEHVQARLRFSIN
Outline: (§1)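 10-pt 1:1 serial dilution in co-factor mix (DMSO stock 100 mM); 10 min preincubation, 37 °C; reaction at 37 °C. Readout: fluorescent metabolite of probe substrate. IC50 from signal vs [compound].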

B-Raf V600E = B-Raf V600E (Homo sapiens, UniProt P15056, V600E); assay: B-Raf V600E biochemical kinase inhibition (AlphaScreen, biotin-MEK1 substrate); conditions: 100 μM ATP
Outline: (§2)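 Eight-point compound series (made from a 0.1 mM DMSO stock) tested against each Raf enzyme with biotin-MEK1 substrate and 100 μM final ATP.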

[1] = Relative solubility by turbidity in aqueous buffers of varying pH; format: physicochemical; conditions: for turbidity threshold (L, M, H) 7.4: HEPES pH 7.4; for turbidity threshold (L, M, H) 4.5: SIF pH 4.5; for turbidity threshold (L, M, H) 6.8: SIF pH 6.8; for turbidity threshold (L, M, H) 1.4: buffer pH 1.4 (SGF)
Outline: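 Turbidity endpoint: concentration where optical density at 490, 535 and 650 nm exceeds 0.01, three-wavelength average used. Buffers at pH 1.5, 4.5, 6.8 and 7.4; DMSO serial dilutions of 25 mM stock spiked 1 μL into 99 μL buffer. Low <31.3, moderate 31.3–250, high >250 μM.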

CYP3A4(BFC) = CYP3A4(BFC) (Homo sapiens, UniProt P08684); assay: CYP3A4(BFC) inhibition (fluorescent substrate); format: in vitro ADME; conditions: read-out: Cyp IC50 3A4(BFC)
Outline: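 Compound, from a 100 mM DMSO stock and diluted 1:1 over 10 points in co-factor mix, was incubated at 37° C with enzyme and a known substrate. Decrease in fluorescent product against concentration gave the IC50.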

CYP2C19 = CYP2C19 (Homo sapiens, UniProt P33261); assay: CYP2C19 inhibition (fluorescent substrate); format: in vitro ADME; conditions: CYP2C19, CEC substrate; read-out: Cyp IC50 2C19
Outline: as §1

B-Raf = B-Raf (Homo sapiens, UniProt P15056); assay: B-Raf biochemical kinase inhibition (AlphaScreen, biotin-MEK1 substrate); conditions: 100 μM ATP
Outline: as §2

Chain of CYP3A4(BFC) (P08684 whole entry): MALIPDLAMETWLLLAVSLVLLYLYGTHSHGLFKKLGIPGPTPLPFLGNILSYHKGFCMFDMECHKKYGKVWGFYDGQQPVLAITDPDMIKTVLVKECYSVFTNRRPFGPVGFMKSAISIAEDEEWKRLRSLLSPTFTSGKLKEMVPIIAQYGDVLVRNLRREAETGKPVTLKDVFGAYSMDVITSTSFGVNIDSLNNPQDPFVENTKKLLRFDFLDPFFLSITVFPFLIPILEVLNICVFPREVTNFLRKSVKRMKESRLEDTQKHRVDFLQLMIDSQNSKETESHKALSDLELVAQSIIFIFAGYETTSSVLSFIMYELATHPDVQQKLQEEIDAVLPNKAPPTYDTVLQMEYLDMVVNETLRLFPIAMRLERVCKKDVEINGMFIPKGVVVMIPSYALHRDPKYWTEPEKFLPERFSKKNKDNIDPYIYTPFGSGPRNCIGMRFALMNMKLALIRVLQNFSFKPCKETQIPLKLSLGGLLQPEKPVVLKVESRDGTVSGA
Chain of B-Raf V600E (P15056 whole entry V600E): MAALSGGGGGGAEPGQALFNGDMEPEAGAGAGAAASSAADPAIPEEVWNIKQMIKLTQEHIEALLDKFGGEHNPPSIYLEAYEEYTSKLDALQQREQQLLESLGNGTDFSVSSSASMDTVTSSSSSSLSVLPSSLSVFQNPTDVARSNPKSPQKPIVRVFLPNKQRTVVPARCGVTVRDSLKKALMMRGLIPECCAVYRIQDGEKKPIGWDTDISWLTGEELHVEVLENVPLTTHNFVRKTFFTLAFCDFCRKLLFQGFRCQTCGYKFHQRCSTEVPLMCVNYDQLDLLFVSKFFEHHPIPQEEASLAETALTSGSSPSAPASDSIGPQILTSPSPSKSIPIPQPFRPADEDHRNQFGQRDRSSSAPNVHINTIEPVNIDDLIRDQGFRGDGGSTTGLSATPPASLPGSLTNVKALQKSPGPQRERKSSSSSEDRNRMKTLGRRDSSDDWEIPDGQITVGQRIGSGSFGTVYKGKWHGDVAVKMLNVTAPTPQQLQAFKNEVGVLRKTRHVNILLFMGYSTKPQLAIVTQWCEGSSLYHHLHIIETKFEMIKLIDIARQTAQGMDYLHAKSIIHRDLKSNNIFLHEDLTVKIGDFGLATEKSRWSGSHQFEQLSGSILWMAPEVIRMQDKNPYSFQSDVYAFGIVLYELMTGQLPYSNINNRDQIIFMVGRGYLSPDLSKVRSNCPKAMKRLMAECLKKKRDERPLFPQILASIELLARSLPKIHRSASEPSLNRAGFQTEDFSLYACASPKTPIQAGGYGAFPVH
Chain of B-Raf (P15056 whole entry): as the sequence (P15056 whole entry V600E) above, with E600V counted along it
Chain of CYP2C19 (P33261 whole entry): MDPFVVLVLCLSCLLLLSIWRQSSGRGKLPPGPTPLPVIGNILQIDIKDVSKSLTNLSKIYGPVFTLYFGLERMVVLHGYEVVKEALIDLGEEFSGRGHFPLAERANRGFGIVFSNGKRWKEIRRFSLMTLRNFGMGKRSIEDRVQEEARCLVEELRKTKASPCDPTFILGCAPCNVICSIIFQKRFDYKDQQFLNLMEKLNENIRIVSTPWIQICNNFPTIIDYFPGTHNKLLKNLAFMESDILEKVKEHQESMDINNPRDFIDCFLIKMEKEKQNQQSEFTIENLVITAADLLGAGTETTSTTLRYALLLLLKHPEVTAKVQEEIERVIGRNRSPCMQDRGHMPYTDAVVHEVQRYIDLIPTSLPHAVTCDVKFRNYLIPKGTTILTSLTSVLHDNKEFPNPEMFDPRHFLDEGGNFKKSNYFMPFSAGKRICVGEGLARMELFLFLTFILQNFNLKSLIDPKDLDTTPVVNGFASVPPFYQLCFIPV

IC50 (CYP1A2) [µM] | IC50 (B-Raf V600E) [µM] | IC50 (CYP3A4(BFC)) [µM] | IC50 (CYP2C19) [µM] | IC50 (B-Raf) [µM] | Structure (SMILES) | turbidity threshold (L, M, H) 7.4 [1] | turbidity threshold (L, M, H) 4.5 [1] | turbidity threshold (L, M, H) 6.8 [1] | turbidity threshold (L, M, H) 1.4 [1]
> 10 | < 0.01 | > 10 | < 5 | < 0.1 | CCCS(=O)(=O)Nc1cccc(C(=O)c2c[nH]c3ncc(-c4cnc(OC)nc4)cc23)c1F [P-2407, Propane-1-sulfonic acid {2-fluoro-3-[5-(2-methoxy-pyrimidin-5-yl)-1H-pyrrolo[2,3-b]pyridine-3-carbonyl]-phenyl}-amide] | L (low solubility if the threshold concentration is <31.3 04) | L (low solubility if the threshold concentration is <31.3 04) | L (low solubility if the threshold concentration is <31.3 04) | L (low solubility if the threshold concentration is <31.3 04)
> 10 | < 0.01 | > 10 | > 10 | < 0.01 | CCCS(=O)(=O)Nc1cccc(C(=O)c2c[nH]c3ncc(-c4cnc(N(C)C)nc4)cc23)c1F [P-2408, Propane-1-sulfonic acid {3-[5-(2-dimethylamino-pyrimidin-5-yl)-1H-pyrrolo[2,3-b]pyridine-3-carbonyl]-2-fluoro-phenyl}-amide] | L (low solubility if the threshold concentration is <31.3 04) | L (low solubility if the threshold concentration is <31.3 04) | L (low solubility if the threshold concentration is <31.3 04) | L (low solubility if the threshold concentration is <31.3 04)
